In ChEMBL document CHEMBL6087422, “A promising class of antiprotozoal agents, design and synthesis of novel Pyrimidine-Cinnamoyl hybrids” (Eur J Med Chem, 2025):
The source made the active and inactive calls. The rule behind the calls is not given here.

Key:
[1] = Haemolytic activity in human RBC assessed as haemolysis at 50 uM for 48 hrs by haemolysis assay; assay type: toxicity, cell-based, Erythrocyte; conditions: human red blood cells, read-out: Activity
[2] = tested on: Plasmodium falciparum; assay: Antimalarial activity against chloroquine-sensitive Plasmodium falciparum NF54 assessed as inhibition of parasite growth measured after 24 hrs by parasite lactate dehydrogenase (pLDH) assay; assay type: functional, organism-based; conditions: NF54, 24 h
[3] = Selectivity index, ratio of IC50 for cytotoxicity against HEK293 cells to IC50 for antimalarial activity against chloroquine sensitive Plasmodium falciparum NF54 assessed as inhibition of parasite growth measured after 24 hrs by parasite lactate dehydrogenase (pLDH) assay; assay type: toxicity, cell-based; conditions: human, HEK293 cells versus Plasmodium falciparum NF54, read-out: Ratio IC50
[4] = Cytotoxicity against HEK293 cells assessed as cell viability incubated for 48 hrs by MTT assay; assay type: toxicity, cell-based; conditions: human
[5] = tested on: Plasmodium falciparum; assay: Antimalarial activity against chloroquine-sensitive Plasmodium falciparum NF54 assessed as reduction of schizonts at IC50 concentration incubated for 48 hrs by microscopic analysis; assay type: functional, organism-based
[6] = tested on: Plasmodium falciparum; assay: Binding affinity to 6xHis tagged recombinant Plasmodium falciparum Hsp70-1 extracted from Escherichia coli by SPR analysis
[7] = tested on: Plasmodium falciparum; assay: Binding affinity to 6xHis tagged recombinant Plasmodium falciparum Hsp70-z extracted from Escherichia coli assessed as association rate constant (Ka) incubated for 3 mins by SPR analysis
[8] = tested on: Plasmodium falciparum; assay: Antimalarial activity against chloroquine-sensitive Plasmodium falciparum NF54 assessed as reduction of second generation rings at IC50 concentration incubated for 48 hrs by microscopic analysis; assay type: functional, organism-based
[9] = tested on: Plasmodium falciparum; assay: Binding affinity to 6xHis tagged recombinant Plasmodium falciparum Hsp70-1 extracted from Escherichia coli assessed as association rate constant (Ka) incubated for 3 mins by SPR analysis
[10] = Binding affinity to 6xHis tagged recombinant Plasmodium falciparum Hsp70-z extracted from Escherichia coli assessed as dissociation constant (KD) incubated for 10 mins by SPR analysis
[11] = Binding affinity to 6xHis tagged recombinant Plasmodium falciparum Hsp70-1 extracted from Escherichia coli assessed as dissociation rate constant (Kd) incubated for 10 mins by SPR analysis
[12] = tested on: Plasmodium falciparum; assay: Binding affinity to 6xHis tagged recombinant Plasmodium falciparum Hsp70-z extracted from Escherichia coli by SPR analysis
[13] = Binding affinity to 6xHis tagged recombinant Plasmodium falciparum Hsp70-1 extracted from Escherichia coli assessed as dissociation constant (KD) incubated for 10 mins by SPR analysis
[14] = Binding affinity to 6xHis tagged recombinant Plasmodium falciparum Hsp70-z extracted from Escherichia coli assessed as dissociation rate constant (Kd) incubated for 10 mins by SPR analysis
[15] = tested on: Plasmodium falciparum; assay: Antimalarial activity against […] Plasmodium falciparum 3D7 assessed as growth inhibition by isotopic micro drug susceptibility assay; assay type: functional, organism-based
[16] = tested on: Plasmodium falciparum; assay: Antimalarial activity against chloroquine-sensitive Plasmodium falciparum W2 assessed as growth inhibition by isotopic micro drug susceptibility assay; assay type: functional, organism-based
[17] = tested on: Plasmodium falciparum; assay: Antimalarial activity against chloroquine-resistant intra-erythrocytic stage Plasmodium falciparum; assay type: functional, organism-based
[18] = tested on: Plasmodium berghei; assay: In vivo antiplasmodial activity against Plasmodium berghei assessed as growth inhibition at 100 mg/kg measured after 21 days relative to control; assay type: functional; parameters: scale not given: the % may be the effect or the level left; conditions: time 21 day

Structure (SMILES): CCN(CC)CCCC(C)Nc1ccnc2cc(Cl)ccc12 (configuration not stated) [CHLOROQUINE]
- hemolysis at 48 h, 50 µM [1]: 0.01%

Structure (SMILES): CCc1ccc(-c2cc(-c3ccc(OC)c(OC)c3)nc(N3CCN(C(=O)/C=C/c4ccc(C)cc4)CC3)n2)cc1
- IC50 [2]: 1560 nM
- hemolysis at 48 h, 50 µM [1]: 0.01%

Structure (SMILES): COc1ccc(-c2cc(-c3ccc(C)cc3)nc(N3CCN(C(=O)/C=C/c4ccc(Cl)cc4)CC3)n2)cc1
- IC50 [2]: 1720 nM
- hemolysis at 48 h, 50 µM [1]: 0.01%

Structure (SMILES): COc1ccc(-c2cc(-c3ccc(Cl)cc3)nc(N3CCN(C(=O)/C=C/c4ccccc4)CC3)n2)cc1
- IC50 [2]: 6020 nM
- hemolysis at 48 h, 50 µM [1]: 0.01%

Structure (SMILES): COc1ccc(-c2cc(-c3ccc(C)cc3)nc(N3CCN(C(=O)/C=C/c4ccc(C)cc4)CC3)n2)cc1
- IC50 [2]: 2330 nM
- hemolysis at 48 h, 50 µM [1]: 0.01%

Structure (SMILES): COc1ccc(-c2cc(-c3ccc(OC)cc3)nc(N3CCN(C(=O)/C=C/c4ccc[nH]4)CC3)n2)cc1
- IC50 [2]: 7430 nM
- selectivity ratio at 24 h [3]: 0.5
- hemolysis at 48 h, 50 µM [1]: 0.01%
- IC50 at 48 h [4]: 3690 nM

Structure (SMILES): CCc1ccc(-c2cc(-c3ccc(OC)c(OC)c3)nc(N3CCN(C(=O)/C=C/c4ccccc4)CC3)n2)cc1
- IC50 [2]: 210 nM
- Activity [5]: Active
- Activity [6]: Dose-dependent-effect
- Ka [7]: 8.28 10^6/M.s
- Activity [8]: Active
- selectivity ratio at 24 h [3]: 16.8
- Ka [9]: 7.97 10^6/M.s
- Kd [10]: 10.8 nM
- Kd [11]: 7.72 10^-2(1/s)
- Activity [12]: Dose-dependent-effect
- Kd [13]: 9.69 nM
- Kd [14]: 8.97 10^-2(1/s)
- hemolysis at 48 h, 50 µM [1]: 0.01%
- IC50 at 48 h [4]: 3550 nM

Structure (SMILES): COc1ccc(-c2cc(-c3ccc(C)cc3)nc(N3CCN(C(=O)/C=C/c4ccccc4)CC3)n2)cc1
- IC50 [2]: 2720 nM
- hemolysis at 48 h, 50 µM [1]: 0.01%

Structure (SMILES): CO[C@H]1/C=C/O[C@@]2(C)Oc3c(C)c(O)c4c(O)c(c(/C=N/N5CCN(C)CC5)c(O)c4c3C2=O)NC(=O)/C(C)=C\C=C\[C@H](C)[C@H](O)[C@@H](C)[C@@H](O)[C@@H](C)[C@H](OC(C)=O)[C@@H]1C [RIFAMPIN]
- IC50 [15]: 3200 nM
- IC50 [16]: 1300 nM

Structure (SMILES): Cc1ccc(/C=C/C(=O)N2CCN(c3nc(-c4ccc(Cl)cc4)cc(-c4cccnc4)n3)CC2)cc1
- IC50 [2]: 3670 nM
- hemolysis at 48 h, 50 µM [1]: 0.01%

Structure (SMILES): CCc1ccc(-c2cc(-c3ccc(OC)c(OC)c3)nc(N3CCN(C(=O)/C=C/c4ccc(OC)cc4)CC3)n2)cc1
- IC50 [2]: 180 nM
- Activity [5]: Active
- Activity [6]: Dose-dependent-effect
- Ka [7]: 6.24 10^6/M.s
- Activity [8]: Active
- selectivity ratio at 24 h [3]: 18.6
- Ka [9]: 5.92 10^6/M.s
- Kd [10]: 15.7 nM
- Kd [11]: 9.29 10^-2(1/s)
- Activity [12]: Dose-dependent-effect
- Kd [13]: 1.57 nM
- Kd [14]: 9.79 10^-2(1/s)
- hemolysis at 48 h, 50 µM [1]: 0.01%
- IC50 at 48 h [4]: 3360 nM

Structure (SMILES): COc1cc(/C=C/C(=O)CC(=O)/C=C/c2ccc(O)c(OC)c2)ccc1O [CURCUMIN]
- IC50 [17]: ~5000 nM
- Activity [18]: 100%

Structure (SMILES): COc1ccc(-c2cc(-c3ccc(C)cc3)nc(N3CCN(C(=O)/C=C/c4ccc(OC)c(OC)c4)CC3)n2)cc1
- IC50 [2]: 600 nM
- selectivity ratio at 24 h [3]: 1.54
- hemolysis at 48 h, 50 µM [1]: 0.01%
- IC50 at 48 h [4]: 930 nM

Structure (SMILES): COc1ccc(/C=C/C(=O)N2CCN(c3nc(-c4ccc(OC)cc4)cc(-c4ccc(OC)cc4)n3)CC2)cc1
- IC50 [2]: 5000 nM
- hemolysis at 48 h, 50 µM [1]: 0.01%

Structure (SMILES): COc1ccc(-c2cc(-c3ccc(OC)cc3)nc(N3CCN(C(=O)/C=C/c4ccc(C)cc4)CC3)n2)cc1
- IC50 [2]: 3580 nM
- hemolysis at 48 h, 50 µM [1]: 0.01%

Structure (SMILES): C=C[C@H]1CN2CC[C@H]1C[C@H]2[C@H](O)c1ccnc2ccc(OC)cc12 [QUININE]
- IC50 [2]: 110 nM
- selectivity ratio at 24 h [3]: 1240
- hemolysis at 48 h, 50 µM [1]: 0.01%

Structure (SMILES): CCc1ccc(-c2cc(-c3ccc(OC)c(OC)c3)nc(N3CCN(C(=O)/C=C/c4ccc(Cl)cc4)CC3)n2)cc1
- IC50 [2]: 200 nM
- selectivity ratio at 24 h [3]: 4.34
- hemolysis at 48 h, 50 µM [1]: 0.01%
- IC50 at 48 h [4]: 870 nM

Structure (SMILES): CC[C@@]1(O)C(=O)OCc2c1cc1n(c2=O)Cc2cc3ccccc3nc2-1 [CAMPTOTHECIN]
- IC50 at 48 h [4]: 200 nM

Structure (SMILES): COc1ccc(-c2cc(-c3ccc(OC)cc3)nc(N3CCN(C(=O)/C=C/c4ccc(OC)c(OC)c4)CC3)n2)cc1
- IC50 [2]: 5000 nM
- hemolysis at 48 h, 50 µM [1]: 0.01%

Structure (SMILES): COc1ccc(-c2cc(-c3ccc(C)cc3)nc(N3CCNCC3)n2)cc1
- IC50 [2]: 5000 nM
- hemolysis at 48 h, 50 µM [1]: 0.01%

Structure (SMILES): O=C(/C=C/c1ccccc1)N1CCN(c2nc(-c3cccnc3)cc(-c3ccoc3)n2)CC1
- IC50 [2]: 5000 nM
- hemolysis at 48 h, 50 µM [1]: 0.01%

Structure (SMILES): CCc1ccc(-c2cc(-c3ccc(OC)c(OC)c3)nc(N3CCN(C(=O)/C=C/c4ccc[nH]4)CC3)n2)cc1
- IC50 [2]: 720 nM
- hemolysis at 48 h, 50 µM [1]: 0.01%

Structure (SMILES): COc1ccc(-c2cc(-c3ccc(OC)cc3)nc(N3CCN(C(=O)/C=C/c4ccc(Cl)cc4)CC3)n2)cc1
- IC50 [2]: 2710 nM
- hemolysis at 48 h, 50 µM [1]: 0.01%

Structure (SMILES): COc1ccc(-c2cc(-c3ccc(OC)cc3)nc(N3CCN(C(=O)/C=C/c4ccccc4)CC3)n2)cc1
- IC50 [2]: 4090 nM
- hemolysis at 48 h, 50 µM [1]: 0.01%
